Data: ChEMBL document CHEMBL4602657, “Design and evaluation of Nrf2 activators with 1,3,4-oxa/thiadiazole core as neuro-protective agents against oxidative stress in PC-12 cells” (Bioorg Med Chem Lett, 2020)
Converted amounts (≈) assume the structure as drawn. The source made the active and inactive calls. The rule behind the calls is not given here.

Legend:
[1] = biological target: T1, Nuclear factor erythroid 2-related factor 2 (Homo sapiens) (UniProt Q16236); test: Activation of Nrf2 in human HepG2-ARE-C8 cells assessed as fold change at 0.1 uM measured after 12 hrs by luciferase reporter gene assay relative to control; type: cell-based
T1 sequence (whole entry): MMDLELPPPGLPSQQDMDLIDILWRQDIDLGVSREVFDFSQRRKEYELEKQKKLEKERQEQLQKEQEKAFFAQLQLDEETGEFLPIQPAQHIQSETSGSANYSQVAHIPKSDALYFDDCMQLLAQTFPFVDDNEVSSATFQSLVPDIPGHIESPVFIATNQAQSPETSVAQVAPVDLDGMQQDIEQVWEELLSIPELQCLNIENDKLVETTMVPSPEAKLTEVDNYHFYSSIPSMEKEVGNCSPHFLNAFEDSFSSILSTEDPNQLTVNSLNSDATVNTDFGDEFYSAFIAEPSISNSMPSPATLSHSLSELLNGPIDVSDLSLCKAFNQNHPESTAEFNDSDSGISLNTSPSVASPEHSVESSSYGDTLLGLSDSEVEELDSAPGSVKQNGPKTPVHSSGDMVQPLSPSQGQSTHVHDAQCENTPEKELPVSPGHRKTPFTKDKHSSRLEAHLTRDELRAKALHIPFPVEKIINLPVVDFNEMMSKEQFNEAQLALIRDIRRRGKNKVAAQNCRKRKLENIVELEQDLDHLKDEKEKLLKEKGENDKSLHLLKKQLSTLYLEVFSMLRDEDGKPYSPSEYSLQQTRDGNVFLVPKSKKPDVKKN

[2] = biological target: T1, Nuclear factor erythroid 2-related factor 2 (Homo sapiens); test: Activation of Nrf2 in human HepG2-ARE-C8 cells assessed as fold change at 1 uM measured after 12 hrs by luciferase reporter gene assay relative to control; type: cell-based
[3] = biological target: T1, Nuclear factor erythroid 2-related factor 2 (Homo sapiens); test: Activation of Nrf2 in human HepG2-ARE-C8 cells assessed as fold change at 10 uM measured after 12 hrs by luciferase reporter gene assay relative to control; type: cell-based
[4] = biological target: T1, Nuclear factor erythroid 2-related factor 2 (Homo sapiens); test: Activation of Nrf2 in human HepG2-ARE-C8 cells assessed as fold change at 20 uM measured after 12 hrs by luciferase reporter gene assay relative to control; type: cell-based
[5] = biological target: T1, Nuclear factor erythroid 2-related factor 2 (Homo sapiens); test: Activation of Nrf2 in human HepG2-ARE-C8 cells assessed as fold change at 40 uM measured after 12 hrs by luciferase reporter gene assay relative to control; type: cell-based
[6] = biological target: T1, Nuclear factor erythroid 2-related factor 2 (Homo sapiens); test: Activation of Nrf2 in human HepG2-ARE-C8 cells assessed as fold change at 80 uM measured after 12 hrs by luciferase reporter gene assay relative to control; type: cell-based
PC-12 [7] = test: Cytotoxicity against rat PC12 cells assessed as reduction in cell viability incubated for 24 hrs by MTT assay; type: cell-based; conditions: PC-12, 24 h
SH-SY5Y [8] = test: Cytotoxicity against human SH-SY5Y cells assessed as reduction in cell viability at 100 uM by MTT assay; type: cell-based
SH-SY5Y [9] = test: Neuroprotective activity in human SH-SY5Y cells assessed as reduction in H2O2-induced cell damage at 5 uM preincubated for 6 hrs followed by H2O2 treatment and measured after 12 hrs by MTT assay; type: functional, cell-based
SH-SY5Y [10] = test: Neuroprotective activity in human SH-SY5Y cells assessed as reduction in H2O2-induced cell damage at 10 to 20 uM preincubated for 6 hrs followed by H2O2 treatment and measured after 12 hrs by MTT assay; type: functional, cell-based
PC-12 [11] = test: Upregulation of Nrf2 mRNA in rat PC12 cell incubated for 12 hrs by qRT-PCR analysis; type: functional, cell-based
PC-12 [12] = test: Upregulation of NQ-O1 mRNA in rat PC12 cell incubated for 12 hrs by qRT-PCR analysis; type: functional, cell-based
PC-12 [13] = test: Upregulation of HO-1 mRNA in rat PC12 cell incubated for 12 hrs by qRT-PCR analysis; type: functional, cell-based
PC-12 [14] = test: Upregulation of Nrf2 protein level in rat PC12 cell incubated for 12 hrs by Western blot analysis; type: functional, cell-based
PC-12 [15] = test: Upregulation of NQ-O1 protein level in rat PC12 cell incubated for 12 hrs by Western blot analysis; type: functional, cell-based
PC-12 [16] = test: Upregulation of HO-1 protein level in rat PC12 cell incubated for 12 hrs by Western blot analysis; type: functional, cell-based
[17] = Permeability of the compound by PAMPA; type: ADME; conditions: read-out: permeability
[18] = Lipophilicity, logD of the compound at pH 7.4; type: physicochemical; conditions: buffer
[19] = Intrinsic aqueous solubility of the compound; type: physicochemical; conditions: read-out: Intrinsic_solubility

Structure (SMILES)	fold change (FC) [1]	fold change (FC) [2]	fold change (FC) [3]	fold change (FC) [4]	fold change (FC) [5]	fold change (FC) [6]	Papp [17] [×10⁻⁶ cm/s]	logD [18]	solubility [19] [µM]	IC50 (PC-12 [7]) [µM]	Activity (SH-SY5Y [8])	Activity (SH-SY5Y [9])	Activity (SH-SY5Y [10])	Activity (PC-12 [11])	Activity (PC-12 [12])	Activity (PC-12 [13])	Activity (PC-12 [14])	Activity (PC-12 [15])	Activity (PC-12 [16])
c1ccc(-c2nnc(-c3ccc4nc[nH]c4c3)s2)cc1	1.7	2.03	8.95	8.18	13.8	15.7													
O=[N+]([O-])c1ccc(-c2nnc(-c3ccc4nc[nH]c4c3)s2)cc1	2.2	5.75	19.4	17.4	22.2	24.6				> 500	Non-Toxic	Active	inactive						
CCCCc1ccc(-c2nnc(-c3ccc4nc[nH]c4c3)s2)cc1	1.08	2.33	2.3	1.68	1.33	1.43													
CCCCc1ccc(-c2nnc(-c3ccc4nc[nH]c4c3)o2)cc1	1.8	6.73	14.8	15.9	24.6	19.6	12.3			> 100	Non-Toxic	inactive	Active	Dose-dependent effect	Dose-dependent effect	Dose-dependent effect	Dose-dependent effect	Dose-dependent effect	Dose-dependent effect
Fc1ccc(-c2nnc(-c3ccc4nc[nH]c4c3)s2)cc1	1.6	3.25	13.1	14.9	22.3	9.9				> 500	Non-Toxic	inactive	Active						
COc1cccc(-c2nnc(-c3ccc4nc[nH]c4c3)o2)c1	1.64	1.72	1.72	1.83	2.41	7.5													
CC(C)(C)c1cc(O)ccc1O	1.68	1.7			5.1	4.73													

More lines, main results first:

fold change (FC) [1]	fold change (FC) [2]	fold change (FC) [3]	fold change (FC) [4]	fold change (FC) [5]	fold change (FC) [6]	Papp [17] [×10⁻⁶ cm/s]	logD [18]	solubility [19] [µM]	Structure (SMILES)	IC50 (PC-12 [7]) [µM]	Activity (SH-SY5Y [8])	Activity (SH-SY5Y [9])	Activity (SH-SY5Y [10])	Activity (PC-12 [11])	Activity (PC-12 [12])	Activity (PC-12 [13])	Activity (PC-12 [14])	Activity (PC-12 [15])	Activity (PC-12 [16])
2.05	4.85	7.98	8.08	6.23	7.98				Brc1ccc(-c2nnc(-c3ccc4nc[nH]c4c3)o2)cc1										
1.45	2.38	1.35	1.65	1.75	1.63				Fc1cccc(-c2nnc(-c3ccc4nc[nH]c4c3)o2)c1										
1.5	1.9	7.68	12.2	20.1	33.8				O=[N+]([O-])c1ccc(-c2nnc(-c3ccc4nc[nH]c4c3)o2)cc1	> 100	Non-Toxic	Active	inactive						
1.4	1.65	1.33	2.35	1.78	2.83				N#Cc1ccc(-c2nnc(-c3ccc4nc[nH]c4c3)o2)cc1										
1.4	1.45	3.25	3.35	4.95	6.6				Cc1ccc(-c2nnc(-c3ccc4nc[nH]c4c3)o2)cc1										
1.7	2.35	6.7	9.15	13.5	19.1				c1ccc(-c2nnc(-c3ccc4nc[nH]c4c3)o2)cc1										
0.9	1.6	1.58	3.15	5.18	9.1				c1ccc(-c2ccc(-c3nnc(-c4ccc5nc[nH]c5c4)o3)cc2)cc1										
1.58	1.28	2.6	6.83	8.73	24.4		2.89	102 (≈ 28.7 µg/mL)	Fc1ccc(-c2nnc(-c3ccc4nc[nH]c4c3)o2)cc1										
